Patent US7378513B2, “Isolated proteins from a traditional Chinese medicine Yuzhu and use thereof” (priority 2005, dated 2008)
≈ marks a conversion by molar mass, not a printed value. Where two headings read alike, the source gives them in different places.

Legend:
[1] = test system: RSV (long strain); assay: microbe, parasite or virus in culture; assay type: cell-based; conditions: human respiratory syncytial virus; plaque reduction assay
[2] = test system: RSV (long strain); assay: microbe, parasite or virus in culture; assay type: cell-based, respiratory syncytial virus; conditions: CPE method; for IC50: human respiratory syncytial virus
[3] = test system: rabbit erythrocytes; assay: Hemagglutinating test, rabbit red blood cells; assay type: cell-based
Protocol: The assay was carried out in a U-shape microtiter plate as described previously (Ooi et al., 1998). […] Specific hemagglutinating activity was expressed as the number of hemagglutinating units per mg protein in Table 3. Rabbit, human (ABO groups), and chicken red blood cells were used for hemagglutinating test. Concanavalin A (ConA) was used as a positive control, and phosphate-buffered saline (PBS, 0.1M, pH7.4) as a negative control. A serial twofold dilution of the lectin solution (in PBS) in microtitre U-plates (50 μl) was mixed with 50 μl of a 2% suspension of red blood cells in PBS at room temperature. The results were read after about one hour when the blank (with red blood cells and buffer only) had fully sedimented.

[4] = test system: HSV-1 (15577); assay: microbe, parasite or virus in culture; assay type: cell-based, Herpes Simplex Virus; conditions: Human alphaherpesvirus 1; plaque reduction assay, Vero cells; M2 value is the average of two
[5] = test system: HSV-1 (15577); assay: microbe, parasite or virus in culture; assay type: cell-based, Herpes Simplex Virus; conditions: Human alphaherpesvirus 1, CPE method
[6] = test system: HSV-2; assay: Cytopathic effect (CPE) inhibition assay, HSV-2; assay type: cell-based, Herpes Simplex Virus; conditions: Human alphaherpesvirus 2; CPE method, Vero cells

NC(=O)c1ncn([C@@H]2O[C@H](CO)[C@@H](O)[C@H]2O)n1 [Ribavirin]
IC50 [1]: 3.3 µg/mL (≈ 13.5 µM) | IC50 RSV (long strain) ([2]; Hep2 cells, Table 4a Yuzhu (Dried Herbs), listed as Ribvirin): (6.3) μg/ml | IC50 ([2]; HEp-2, Hep2 cells, Table 4a Yuzhu (Dried Herbs), read-out: IC50 RSV (long strain)): 6.3 µg/mL (≈ 25.8 µM) | IC50 ([2]; Table 4b Yuzhu (Fresh Herbs), read-out: IC50 RSV): 6.3 µg/mL (≈ 25.8 µM)

Concanavalin A [ConA]
Specific hemagglutinating activity [3]: 12,800 U/mg protein

Nc1nc2c(ncn2COCCO)c(=O)[nH]1 [Acyclovir]
IC50 [4]: 0.15 µg/mL (≈ 0.666 µM) | IC50 ([5]; Vero cells, Table 4a Yuzhu (Dried Herbs)): 0.25 µg/mL (≈ 1.11 µM) | IC50 ([5]; Table 4b Yuzhu (Fresh Herbs)): 0.25 µg/mL (≈ 1.11 µM) | IC50 [6]: 0.35 µg/mL (≈ 1.55 µM)
